“And” between values parts separate entries of the source, which are not always exact repeats. Equal values may be shown once.
What was measured:
IL-2 [1] = experiment: IL-2 activity of supernatants of human mononuclear cells on CTLD cells (Example 8); assay type: cell-based; details: 72 hours
receptor sites for IL-2 = experiment: Detection of IL-2 receptors with fluoresceinated antibody (Example 21); assay type: cell-based, human; details: 1 μg/ml, 24 hours
Procedure: This example provides an assay to detect the presence of receptor sites for IL-2. […] The cells were washed twice with PDS and then incubated with a specific fluoresceinated antibody against IL-2 receptors as described in Uchiyama et al, J. Immunol.

IL-2 [2] = experiment: In vitro induction of IL-2 from mouse spleen cells (Example 7); assay type: cell-based, male Balb-c mice
Procedure: This example describes the in vitro making of IL-2 and CSF from mouse spleen cells using the compound of Example 1 as the extrinsic stimulating agent.
Spleens were removed from 15, male Balb-c mice 6 to 8 weeks of age. The spleen cells were pushed through stainless steel 60 mesh (U.S. standard) nets resting in 5 mm Petri dishes containing PBS in order to separate the cells. The cells were then collected into centrifuge tubes and spun at 1000 rpm for 10 minutes. The supernatant was discarded and cells were treated with 5 ml of hypotonic buffer (0.15M NH4 Cl; 0.01M KHCO3 dissolved in double distilled water, pH 7.2) for exactly two minutes. Thereafter, PBS was added to the cells and the test tubes were centrifuged for 10 minutes at 1000 rpm. The cells were rinsed twice and counted in a heamocytometer using trypan blue to test for viability. The cells were brought to a concentration of 10^7 viable cells/ml. The cells were contacted with varying amounts of the compound of Example 1 in 1 ml of 40% DMSO 60% PBS.

[3] = test system: experimentally induced tumor; experiment: In vivo effect on methylcholanthrene (MCA) induced tumor (Example 5); set-up: species or system C3 Heb mice; details: 10 μg IP
Procedure: A solution of 0.2% of methylcholanthrene (MCA, Sigma, USA) was prepared by dissolving 2 mg of the carcinogen in 1.0 ml of olive oil (Ref: Petra, et al., Cancer 19:302, 1961) with continuous shaking at 37° C. for 30 minutes. Six to eight week old C3 Heb mice were injected with 0.6 mg MCA/0.3 ml of solvent/mouse subcutaneously in the rear right thigh. After 21-30 days the induced tumor was surgically removed and pushed through 60 mesh stainless nets to obtain isolated cells. These cells were then further injected subcuteneously into the rear right thigh of C3 Heb mice 5 to 8 weeks of age, at a concentration of 10^6 cells/0.3 ml PBS/mouse/hypodermic needle 25 gauge, 5/8" to further induce tumor formation.
Five days after injection of the tumor cells, a palpable tumor was induced. The animals were thereafter treated as follows:
(a) control (0.2 ml 40% DMSO 60% PBS, IP 1 day after the induced tumor was palpable)
(b) 10 μg of compound of Example 1, IP to 5 mice (in 0.2 ml 40% DMSO 60% PBS, 3 days after the induced tumor was palpable and a second injection of 10 μg of compound in the same solvent was administered 5 days after the first injection to 3 of the 5 mice.
All animals expired 35 to 38 days after the initial innoculation.

human mononuclear cells = experiment: Proliferation of human mononuclear cells (Example 19); assay type: cell-based
Procedure: Human mononuclear cells were obtained by layering heparinized blood over a Ficoll/Hypaque gradient. The mononuclear cells were resuspended in enriched RPMI, rinsed three times and brought to a concentrations of 5×10^5 cells/ml encriched RPMI. […] Aliquots of 0.2 ml of each sample were placed in wells of microplates (triplicates). Microplates were incubated for 72 hours at 37° C. after which they were labelled with H^3 methyl-thymidine 1 μCi/well for an additional 24 hours. Cells were then harvested with a cell harvester.

Cl[TeH]1(Cl)(Cl)OCCO1 [Example 1]
IL-2 activity (IL-2 [1]; 1 ng): 11,000 Counts per minute | IL-2 activity (IL-2 [1]; 10 ng): 1,500 Counts per minute | IL-2 activity (IL-2 [1]; 1 μg): 250 Counts per minute | IL-2 activity (IL-2 [1]; 100 μg): 280 Counts per minute | cells positive for IL-2 receptors (receptor sites for IL-2): 20% | IL-2 (IL-2 [2]; 5 pg): 12,000 cpm | IL-2 (IL-2 [2]; 50 pg): 38,000 cpm | IL-2 (IL-2 [2]; 500 pg): 30,000 cpm | IL-2 (IL-2 [2]; 5 ng): 15,000 cpm | IL-2 (IL-2 [2]; 50 ng): 6,000 cpm | IL-2 (IL-2 [2]; 500 ng): 5,000 cpm | IL-2 (IL-2 [2]; 5 μg): 5,000 cpm | IL-2 (IL-2 [2]; 50 μg): 5,000 cpm | Vol. of Tumor (13 days) ([3]; day 3, individual mouse): 0.77 and 1.66 | Vol. of Tumor (13 days) ([3]; day 3 and 5, individual mouse): 0.7 and 0.52 and 0.31 | proliferation of human mononuclear cells (human mononuclear cells; first part of table, 1 × 10^-3 μg/ml): 2553 and 2180 | proliferation of human mononuclear cells (human mononuclear cells; first part of table, 1 × 10^-4 μg/ml): 3838 and 2387 | proliferation of human mononuclear cells (human mononuclear cells; first part of table, 1 × 10^-5 μg/ml): 3218 and 2442 | proliferation of human mononuclear cells (human mononuclear cells; first part of table, 5 × 10^-1 μg/ml): 18515 and 33700 | proliferation of human mononuclear cells (human mononuclear cells; second part of table, 1 μg/ml): 6000 and 5600 | proliferation of human mononuclear cells (human mononuclear cells; second part of table, 5 μg/ml): 5008 and 5182 | proliferation of human mononuclear cells (human mononuclear cells; second part of table, 1 × 10^-1 μg/ml): 7037 and 10382 | proliferation of human mononuclear cells (human mononuclear cells; second part of table, 1 × 10^-2 μg/ml): 6898 and 5712 | proliferation of human mononuclear cells (human mononuclear cells; second part of table, 1 × 10^-3 μg/ml): 5800 and 6000 | proliferation of human mononuclear cells (human mononuclear cells; second part of table, 1 × 10^-4 μg/ml): 5513 and 6212 | proliferation of human mononuclear cells (human mononuclear cells; second part of table, 5 × 10^-1 μg/ml): 20488 and 13600 | proliferation of human mononuclear cells (human mononuclear cells; second part of table, 5 × 10^-2 μg/ml): 5520 and 5765
